Reference: US20100317850A1 (priority 2008, published 2010)

System: Aβ42 production
Assay: Quantification of Aβ peptide in culture of neurons from rat fetus brain (Aβ ELISA)
Assay type: cell-based
Details: Neuron, 72 h; rat primary neuronal culture (cerebral cortex, embryonic day 18 Wistar rats); medium collected three days after addition of the compound; Aβx-42 ELISA; read-out: Aβ42 production reducing effect IC50
Summary of the method: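 Primary cortical neurons from embryonic day 18 Wistar rats were cultured 4 days, then exposed to compound in Neurobasal/B27 without 2-ME, final DMSO ≤1%. After three days, medium was collected and Aβx-42 measured undiluted by sandwich ELISA.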

Going from `N#Cc1ccc(C(=O)Nc2ccc(F)c([C@]34CO[C@H](CF)[C@H]3CSC(N)=N4)c2)nc1` [Example 164, N-[3-((4aS,5S,7aS)-2-amino-5-fluoromethyl-4a,5-dihydro-4H-furo[3,4-d][1,3]thiazin-7a-yl)-4-fluorophenyl]-5-cyanopyridine-2-carboxamide] to `NC1=N[C@@]2(c3cc(NC(=O)c4ccc(OC(F)F)cn4)ccc3F)CO[C@H](CF)[C@H]2CS1` [Example 72, N-[3-((4aS,5,7aS)-2-amino-5-fluoromethyl-4a,5-dihydro-4H-furo[3,4-d][1,3]thiazin-7a-yl)-4-fluorophenyl]-5-difluoromethoxypyridine-2-carboxamide], the IC50 rises from 1 nM to 2 nM (2-fold). The first is the more potent here.

`NC1=N[C@@]2(c3cc(NC(=O)c4ccc(Br)cn4)ccc3F)CCOC[C@H]2CS1` (single isomer, unassigned) [Example 142, N-[3-((4aS*,8aS*)-2-amino-4a,5,7,8-tetrahydro-4H-6-oxa-3-thia-1-azanaphthalen-8a-yl)-4-fluorophenyl]-5-bromopyridine-2-carboxamide] and `NC1=N[C@@]2(c3cc(NC(=O)c4ccc(OC(F)F)cn4)ccc3F)CCOC[C@H]2CS1` (relative stereo) [Example 81, N-[3-((4aS*,8aS*)-2-amino-4a,5,7,8-tetrahydro-4H-6-oxa-3-thia-1-azanaphthalen-8a-yl)-4-fluorophenyl]-5-difluoromethoxypyridine-2-carboxamide] are within 1.5-fold of each other in IC50: 10 nM for the first, 14 nM for the second.

First: CO[C@@H]1C[C@H]2CSC(N)=N[C@@]2(c2cc(NC(=O)c3ccc(C#N)cn3)ccc2F)C1 (relative stereo) [Example 32, (+)-N-[3-((4aR*,6R*,7aS*)-2-amino-6-methoxy-4a,5,6,7-tetrahydro-4H-cyclopenta[d][1,3]thiazin-7a-yl)-4-fluorophenyl]-5-cyanopyridine-2-carboxamide]
Second: CO[C@H]1C[C@H]2CSC(N)=N[C@@]2(c2cc(NC(=O)c3ccc(C#N)cn3)ccc2F)C1 (relative stereo) [Example 31, (+)-N-[3-((4aR*,6S*,7aS*)-2-amino-6-methoxy-4a,5,6,7-tetrahydro-4H-cyclopenta[d][1,3]thiazin-7a-yl)-4-fluorophenyl]-5-cyanopyridine-2-carboxamide]
The IC50 of the first is 3.6-fold lower: 1.1 nM for the first, 4 nM for the second. The first is the more potent here.

Compared with `CO[C@@H]1CC[C@]2(c3cc(NC(=O)c4ccc(C#N)cn4)ccc3F)N=C(N)SC[C@@H]2C1` (relative stereo) [Example 206, N-[3-((4aR*,6R*,8aS*)-2-amino-6-methoxy-4,4a,5,6,7,8-hexahydrobenzo[d][1,3]thiazin-8a-yl)-4-fluorophenyl]-5-cyanopyridine-2-carboxamide], `CO[C@H]1CC[C@]2(c3cc(NC(=O)c4ccc(C#N)cn4)ccc3F)N=C(N)SC[C@@H]2C1` (relative stereo) [Example 204, N-[3-((4aR*,6S*,8aS*)-2-amino-6-methoxy-4,4a,5,6,7,8-hexahydrobenzo[d][1,3]thiazin-8a-yl)-4-fluorophenyl]-5-cyanopyridine-2-carboxamide] is 12-fold higher in IC50: 2 nM for the first, 23 nM for the second.

First: NC1=N[C@@]2(c3cccc(-c4cccnc4F)c3)CN(c3ccc(F)cc3)C[C@H]2CS1 (racemic) [Example 226, (±)-(4aR*,7aS*)-6-(4-fluorophenyl)-7a-[3-(2-fluoropyridin-3-yl)phenyl]-4,4a,5,6,7,7a-hexahydropyrrolo[3,4-d][1,3]thiazin-2-ylamine]
Second: NC1=N[C@@]2(c3cccc(-c4cccnc4F)c3)CN(c3ccccc3)C[C@H]2CS1 (racemic) [Example 36, (±)-(4aR,7aS)-7a-[3-(2-fluoro-pyridin-3-yl)phenyl]-6-phenyl-4,4a,5,6,7,7a-hexahydropyrrolo[3,4-d][1,3]thiazin-2-ylamine]
The IC50 of the first is 1.6-fold lower: 233 nM for the first, 384 nM for the second. The first is the more potent here.

`NC1=N[C@@]2(c3cc(NC(=O)c4ccc(OCC(F)(F)F)cn4)ccc3F)CCC[C@H]2CS1` (single isomer, unassigned) [Example 179, N-[3-((4aR*,7aS*)-2-amino-4a,5,6,7-tetrahydro-4H-cyclopenta[d][1,3]thiazin-7a-yl)-4-fluorophenyl]-5-(2,2,2-trifluoroethoxy)-pyridine-2-carboxamide] and `NC1=N[C@@]2(c3cc(NC(=O)c4ccc(C(F)(F)F)cn4)ccc3F)CCCC[C@H]2CS1` (single isomer, unassigned) [Example 106, N-[3-((4aR*,8aS*)-2-amino-4,4a,5,6,7,8-hexahydrobenzo[d][1,3]thiazin-8a-yl)-4-fluorophenyl]-5-trifluoromethylpyridine-2-carboxamide] are within 1.5-fold of each other in IC50: 98 nM for the first, 88 nM for the second.

First: CO[C@H]1C[C@H]2CSC(N)=N[C@@]2(c2cc(-c3cccnc3F)ccc2F)C1 (relative stereo) [Example 243, (±)-(4aR*,6S*,7aS*)-7a-[2-Fluoro-5-(2-fluoro-pyridin-3-yl)phenyl-6-methoxy-4,4a,5,6,7,7a-hexahydrocyclopenta[d][1,3]thiazin-2-ylamine]
Second: NC1=N[C@@]2(c3cc(-c4cccnc4F)c(F)cc3F)CCCC[C@H]2CS1 (racemic) [Example 245, (±)-(4aR*,8aS*)-8a-[2,4-difluoro-5-(2-fluoropyridin-3-yl)phenyl]-4a,5,6,7,8,8a-hexahydro-4H-benzo[d][1,3]thiazin-2-ylamine]
The IC50 of the first is 17-fold lower: 69 nM for the first, 1160 nM for the second. The first is the more potent here.

First: NC1=N[C@@]2(c3cc(NC(=O)c4ncc(Cl)cc4Cl)ccc3F)COC[C@H]2CS1 (single isomer, unassigned) [Example 189, N-[3-((4aS*,7aS*)-2-amino-4a,5-dihydro-4H-furo[3,4-d][1,3]thiazin-7a-yl)-4-fluorophenyl]-3,5-dichloropyridine-2-carboxamide]
Second: NC1=N[C@@]2(c3cc(NC(=O)c4ncc(F)cc4F)ccc3F)CCOC[C@H]2CS1 [Example 200]
The IC50 of the first is 5.5-fold lower: 8 nM for the first, 44 nM for the second.

First: COC[C@H]1C[C@]2(c3cc(NC(=O)c4cnc(C(F)F)cn4)ccc3F)N=C(N)SC[C@@H]2CO1 [Example 40, N-[3-((4aS,7R,8aS)-2-amino-7-methoxymethyl-4a,5,7,8-tetrahydro-4H-6-oxa-3-thia-1-azanaphthalen-8a-yl)-4-fluorophenyl]-5-difluoromethylpyrazine-2-carboxamide]
Second: NC1=N[C@@]2(c3cc(NC(=O)c4cnc(OC(F)F)cn4)ccc3F)COC[C@H]2CS1 (relative stereo) [Example 25, N-[3-((4aS*,7aS*)-2-amino-4a,5-dihydro-4H-furo[3,4-d][1,3]thiazin-7a-yl)-4-fluorophenyl]-5-difluoromethoxypyrazine-2-carboxamide]
The IC50 of the first is 4.3-fold higher: 26 nM for the first, 6.1 nM for the second. The second is the more potent here.

Going from `NC(=O)c1ccc(C(=O)Nc2ccc(F)c([C@]34CCC[C@H]3CSC(N)=N4)c2)nc1` [Example 129] to `NC1=N[C@@]2(c3cc(NC(=O)c4ccc(Cl)cn4)ccc3F)CCC[C@H]2CS1` (relative stereo) [Example 5, (+)-N-[3-((4aR*,7aS*)-2-amino-4a,5,6,7-tetrahydro-4H-cyclopenta[d][1,3]thiazin-7a-yl)-4-fluorophenyl]-5-chloropyridine-2-carboxamide], the IC50 falls from 65 nM to 3 nM (22-fold).

First: NC1=N[C@@]2(c3cc(NC(=O)c4ncccn4)ccc3F)CCC[C@H]2CS1 [Example 198]
Second: NC1=N[C@@]2(c3cc(NC(=O)c4ncc(F)cc4F)ccc3F)CCC[C@H]2CS1 (single isomer, unassigned) [Example 168, N-[3-((4aR*,7aS*)-2-amino-4a,5,6,7-tetrahydro-4H-cyclopenta[d][1,3]thiazin-7a-yl)-4-fluorophenyl]-3,5-difluoropyridine-2-carboxamide]
The IC50 of the first is 8.1-fold higher: 129 nM for the first, 16 nM for the second. The second is the more potent here.

Going from `NC1=N[C@@]2(c3cccc(-c4cccnc4F)c3)CN(C(=O)C3CC3)C[C@H]2CS1` [Example 84] to `NC1=N[C@@]2(c3cccc(-c4cccnc4F)c3)CN(C(=O)CC3CC3)C[C@H]2CS1` [Example 48], the IC50 falls from 893 nM to 575 nM (1.6-fold).

First: NC1=N[C@@]2(c3cc(NC(=O)c4ncccc4C(F)(F)F)ccc3F)CCCCC[C@H]2CS1 [Example 252]
Second: NC1=N[C@@]2(c3cc(NC(=O)c4ccc(Cl)cn4)ccc3F)CCCC[C@H]2CS1 (single isomer, unassigned) [Example 3, (+)-N-[3-((4aR.*,8aS*)-2-amino-4,4a,5,6,7,8-hexahydrobenzo[d][1,3]thiazin-8a-yl)-4-fluorophenyl]-5-chloropyridine-2-carboxamide]
The IC50 of the first is 21-fold higher: 187 nM for the first, 9 nM for the second.

Compared with `N#Cc1ccc(C(=O)Nc2ccc(F)c([C@]34CCCC[C@H]3CSC(N)=N4)c2)nc1` (relative stereo) [Example 19, N-[3-((4aR*,8aS*)-2-amino-4,4a,5,6,7,8-hexahydrobenzo[d][1,3]thiazin-8a-yl)-4-fluorophenyl]-5-cyanopyridine-2-carboxamide], `NC1=N[C@@]2(c3cc(NC(=O)c4ccc(C5CC5)cn4)ccc3F)CCC[C@H]2CS1` [Example 134] is 1.9-fold higher in IC50: 45 nM for the first, 86 nM for the second.

Compared with `NC1=N[C@@]2(c3cc(NC(=O)c4ccc5cnccc5n4)ccc3F)CCC[C@H]2CS1` [Example 138], `NC1=N[C@@]2(c3cc(NC(=O)c4cnc(OCF)cn4)ccc3F)COC[C@H]2CS1` (single isomer, unassigned) [Example 27, N-[3-((7S*,7aS*)-2-amino-4a,5-dihydro-4H-furo[3,4-d][1,3]thiazin-7a-yl)-4-fluorophenyl]-5-fluoromethoxypyrazine-2-carboxamide] is 5.7-fold lower in IC50: 63 nM for the first, 11 nM for the second.

Compared with `CCCCO[C@@H]1C[C@H]2CSC(N)=N[C@@]2(c2cc(NC(=O)c3ccc(C#N)cn3)ccc2F)C1` (relative stereo) [Example 108, (+)-N-[3-((4aR*,6R*,7aS*)-2-amino-6-butoxy-4a,5,6,7-tetrahydro-4H-cyclopenta[d][1,3]thiazin-7a-yl)-4-fluorophenyl]-5-cyanopyridine-2-carboxamide], `CCCCO[C@H]1C[C@H]2CSC(N)=N[C@@]2(c2cc(NC(=O)c3ccc(C#N)cn3)ccc2F)C1` (relative stereo) [Example 109, (+)-N-[3-((4aR*,6S*,7aS*)-2-amino-6-butoxy-4a,5,6,7-tetrahydro-4H-cyclopenta[d][1,3]thiazin-7a-yl)-4-fluorophenyl]-5-cyanopyridine-2-carboxamide] is 1.8-fold higher in IC50: 1 nM for the first, 1.8 nM for the second. The first is the more potent here.
